How the values were obtained:
Type in all cases: cell-based
Serratia marcescens = test: MIC against Gram-negative bacteria: Serratia marcescens; conditions: 5×10^5 CFU/mL
Method in brief: (§1)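 Two-fold serial dilutions of each purified human EGF domain protein, three replicate wells per level, were combined with bacteria at a final 5×10^5 CFU/mL in LB. Cultures were shaken at 175 rpm, 37° C. The MIC was taken as the minimum concentration preventing growth.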

E. coli DH5α = test: Antibacterial activity: MIC and growth curve against E. coli DH5α in 96-well plate; conditions: minimal inhibitory concentration against E. coli DH5α; 96-well plate, 5×10^5 CFU/mL, 37° C., judged after 8 h
Method in brief: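 Log-phase DH5α (OD600 about 0.5, 37° C, 185 rpm in LB) was pelleted, resuspended in fresh LB and seeded at 5×10^5 CFU/mL with recombinant protein at 50, 25 and 12.5 μg/mL (two-fold series), in triplicate. Plates were shaken at 175 rpm, 37° C, and OD600 was read every 30 min. MIC was the lowest concentration with no growth.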

E. coli BL21 = test: MIC against Gram-negative bacteria: E. coli BL21; conditions: 5×10^5 CFU/mL
Method in brief: as §1

Enterobacter cloacae = test: MIC against Gram-negative bacteria: Enterobacter cloacae; conditions: 5×10^5 CFU/mL
Method in brief: as §1

Klebsiella pneumonia = test: MIC against Gram-negative bacteria: Klebsiella pneumonia; conditions: 5×10^5 CFU/mL
Method in brief: as §1

Aeromonas hydrophila = test: MIC against Gram-negative bacteria: Aeromonas hydrophila; conditions: 5×10^5 CFU/mL
Method in brief: as §1

Proteus vulgaris = test: MIC against Gram-negative bacteria: Proteus vulgaris; conditions: 5×10^5 CFU/mL
Method in brief: as §1

Moraxella catarrhalis = test: MIC against Gram-negative bacteria: Moraxella catarrhalis; conditions: 5×10^5 CFU/mL
Method in brief: as §1

Citrobacter diversus = test: MIC against Gram-negative bacteria: Citrobacter diversus; conditions: 5×10^5 CFU/mL
Method in brief: as §1

Pseudomonas aeruginosa = test: MIC against Gram-negative bacteria: Pseudomonas aeruginosa; conditions: 5×10^5 CFU/mL
Method in brief: as §1

Proteus mirabilis = test: MIC against Gram-negative bacteria: Proteus mirabilis; conditions: 5×10^5 CFU/mL
Method in brief: as §1

[1] = E. coli BL21, 10 h cultivation at 37° C.
[2] = S. marcescens, 10 h cultivation at 37° C.
[3] = E. cloacae, 10 h cultivation at 37° C.
[4] = K. pneumonia, 10 h cultivation at 37° C.
[5] = A. hydrophila, 10 h cultivation at 37° C.
[6] = P. vulgaris, 10 h cultivation at 37° C.
[7] = M. catarrhalis, 10 h cultivation at 37° C.
[8] = C. diversus, 10 h cultivation at 37° C.
[9] = P. aeruginosa, 10 h cultivation at 37° C.
[10] = P. mirabilis, 10 h cultivation at 37° C.

PRT1393 (EERSCHSHCTEHGQCKDGKCECSPGWEGDHCT; listed as Homo sapiens)
MIC against S. marcescens (Serratia marcescens; Serratia marcescens, 10 h cultivation at 37° C.): 12.5 µg/mL
MIC (E. coli DH5α): 25 µg/mL
MIC against E. coli BL21 (E. coli BL21; [1]): 12.5 µg/mL
MIC against E. cloacae (Enterobacter cloacae; Enterobacter cloacae, 10 h cultivation at 37° C.): 25 µg/mL
MIC against K. pneumonia (Klebsiella pneumonia; Klebsiella pneumonia, 10 h cultivation at 37° C.): 50 µg/mL
MIC against A. hydrophila (Aeromonas hydrophila; Aeromonas hydrophila, 10 h cultivation at 37° C.): 12.5 µg/mL
MIC against P. vulgaris (Proteus vulgaris; Proteus vulgaris, 10 h cultivation at 37° C.): 50 µg/mL
MIC against M. catarrhalis (Moraxella catarrhalis; Moraxella catarrhalis, 10 h cultivation at 37° C.): 50 µg/mL
MIC against C. diversus (Citrobacter diversus; Citrobacter diversus, 10 h cultivation at 37° C.): 25 µg/mL
MIC against P. aeruginosa (Pseudomonas aeruginosa; Pseudomonas aeruginosa, 10 h cultivation at 37° C.): 25 µg/mL
MIC against P. mirabilis (Proteus mirabilis; Proteus mirabilis, 10 h cultivation at 37° C.): 12.5 µg/mL

PRT425 (DVDECAMGTHTCQPGFLCQNTKGSFYCQARQRCMDGFLQDPEGNCV; listed as Homo sapiens)
MIC (Serratia marcescens; [2]): 50 µg/mL
MIC (E. coli DH5α): 12.5 µg/mL
MIC (E. coli BL21; [1]): 25 µg/mL
MIC (Enterobacter cloacae; [3]): 12.5 µg/mL
MIC (Klebsiella pneumonia; [4]): 25 µg/mL
MIC (Aeromonas hydrophila; [5]): 25 µg/mL
MIC (Proteus vulgaris; [6]): 12.5 µg/mL
MIC (Moraxella catarrhalis; [7]): 12.5 µg/mL
MIC (Citrobacter diversus; [8]): 50 µg/mL
MIC (Pseudomonas aeruginosa; [9]): 50 µg/mL
MIC (Proteus mirabilis; [10]): 50 µg/mL

PRT512 (CACPLISSSNNFSPSCVAEGLDDYRCTACPRGYEGQYCERCAPGYTGSPGNPGGSCQE; listed as Homo sapiens)
MIC against S. marcescens (Serratia marcescens; 96-well plate, 37° C., 10 h): 12.5 µg/mL
MIC (E. coli DH5α): 50 µg/mL
MIC against E. coli BL21 (E. coli BL21; 96-well plate, 37° C., 10 h): 25 µg/mL
MIC against E. cloacae (Enterobacter cloacae; 96-well plate, 37° C., 10 h): 50 µg/mL
MIC against K. pneumonia (Klebsiella pneumonia; 96-well plate, 37° C., 10 h): 25 µg/mL
MIC against A. hydrophila (Aeromonas hydrophila; 96-well plate, 37° C., 10 h): 25 µg/mL
MIC against P. vulgaris (Proteus vulgaris; 96-well plate, 37° C., 10 h): 25 µg/mL
MIC against M. catarrhalis (Moraxella catarrhalis; 96-well plate, 37° C., 10 h): 25 µg/mL
MIC against C. diversus (Citrobacter diversus; 96-well plate, 37° C., 10 h): 12.5 µg/mL
MIC against P. aeruginosa (Pseudomonas aeruginosa; 96-well plate, 37° C., 10 h): 12.5 µg/mL
MIC against P. mirabilis (Proteus mirabilis; 96-well plate, 37° C., 10 h): 50 µg/mL

PRT765 (VRDKCALGSHGCQHICVSDGAASYHCDCYPGYTLNEDKKTCS; listed as Homo sapiens)
MIC (μg/mL) S. marcescens (Serratia marcescens; [2]): 12.5 µg/mL
MIC (E. coli DH5α): 12.5 µg/mL
MIC (μg/mL) E. coli BL21 (E. coli BL21; [1]): 50 µg/mL
MIC (μg/mL) E. cloacae (Enterobacter cloacae; [3]): 12.5 µg/mL
MIC (μg/mL) K. pneumonia (Klebsiella pneumonia; [4]): 50 µg/mL
MIC (μg/mL) A. hydrophila (Aeromonas hydrophila; [5]): 12.5 µg/mL
MIC (μg/mL) P. vulgaris (Proteus vulgaris; [6]): 12.5 µg/mL
MIC (μg/mL) M. catarrhalis (Moraxella catarrhalis; [7]): 12.5 µg/mL
MIC (μg/mL) C. diversus (Citrobacter diversus; [8]): 12.5 µg/mL
MIC (μg/mL) P. aeruginosa (Pseudomonas aeruginosa; [9]): 12.5 µg/mL
MIC (μg/mL) P. mirabilis (Proteus mirabilis; [10]): 12.5 µg/mL

PRT493 (CDCPHTQNTCDPETGECVCPPHTQGVKCEECEDGHWGYDAEVGCQA; listed as Homo sapiens)
MIC against S. marcescens (Serratia marcescens; 96-well plate, 37° C., 10 h): 25 µg/mL
MIC (E. coli DH5α): 12.5 µg/mL
MIC against E. coli BL21 (E. coli BL21; 96-well plate, 37° C., 10 h): 50 µg/mL
MIC against E. cloacae (Enterobacter cloacae; 96-well plate, 37° C., 10 h): 25 µg/mL
MIC against K. pneumonia (Klebsiella pneumonia; 96-well plate, 37° C., 10 h): 50 µg/mL
MIC against A. hydrophila (Aeromonas hydrophila; 96-well plate, 37° C., 10 h): 12.5 µg/mL
MIC against P. vulgaris (Proteus vulgaris; 96-well plate, 37° C., 10 h): 12.5 µg/mL
MIC against M. catarrhalis (Moraxella catarrhalis; 96-well plate, 37° C., 10 h): 50 µg/mL
MIC against C. diversus (Citrobacter diversus; 96-well plate, 37° C., 10 h): 25 µg/mL
MIC against P. aeruginosa (Pseudomonas aeruginosa; 96-well plate, 37° C., 10 h): 12.5 µg/mL
MIC against P. mirabilis (Proteus mirabilis; 96-well plate, 37° C., 10 h): 25 µg/mL
